This is an account of results in patent publication US11603378B2, “Azole silane compound” (Atotech Deutschland GmbH, priority 2018, dated 2023).

Where only a bound is given, the exact number is not on record here.

What all share (type): physicochemical
A short description of data set [1]: Solubility test: time until 50 g/L of compound is fully dissolved in glycol ether solvent. Particulars: approx. 22° C., constant stirring, test carried out for 30 minutes; for t [min] DEGBE (time until fully dissolved): 50 g/L in diethylene glycol monobutyl ether; for t [min] EGBE (time until fully dissolved): 50 g/L in ethylene glycol monobutyl ether. On the procedure: In a solubility test, solubility in diethylene glycol monobutyl ether (DEGBE) and ethylene glycol monobutyl ether (EGBE) as solvents was tested at approximately 22° C. under constant stirring. For that, the azole silane compound of Formula (Ia), obtained in Example A), 1), and the reference compound of formula (X) were dissolved in respective samples (mixtures).
In each solubility test the time “t” was determined until an amount of the respective compound in its highly viscous state, corresponding in each case to a concentration of 50 g/L of the azole silane compound (approximately corresponding to 5 wt.-%, based on the total weight of a respective test composition), was fully dissolved in the respective solvent. Each solubility test was carried out for 30 minutes.

Data set [2] in a line: Stability test of alkaline storage solution (precipitation in dependence of pH). Particulars: for precipitation, storage solution: 50° C., 4 wt.-% in 20 wt.-% water / 76 wt.-% DEGBE. Also noted: key to precipitation, storage solution: xx = strong precipitation; x = little, insignificant precipitation; 0 = no precipitation. The method, then: C-2i) Alkaline Storage Solution: In a first stability test, stability of a compound of formula (Ib) obtained in Example A), 3) was further investigated in dependence of the pH. For that purpose, various storage solutions (according to the present invention and not according to the present invention) have been prepared each comprising 200 mL/L water (corresponding to approximately 20 wt.-%), 800 mL/L DEGBE (corresponding to approximately 76 wt.-%), and a compound of formula (Ib) in a total amount of 4 wt.-%, based on the total weight of the respective storage solution. The various pH values were obtained by adding sodium hydroxide or sulfuric acid. The stability was evaluated after 1, 7, and 15 days by carefully determining the presence of any precipitates. During the stability tests, the temperature of each storage solution was 50° C.

Data set [3] is described as follows: Stability test of aqueous working solution (precipitation at various pH). Particulars: 50° C., approx. 1 wt.-%, 250 mL/L storage solution pH 11 + 750 mL/L water. Details: key: xx = strong precipitation; x = little, insignificant precipitation; 0 = no precipitation. On the procedure:
C-2ii) Aqueous Working Solution:
In a second stability test, stability of a compound of formula (Ib) also obtained in Example A), 3) was investigated at various pH values but with lower concentration compared to C-2i.
For that purpose, various working solutions (according to the present invention and not according to the present invention) have been prepared each comprising 250 mL/L of storage solution with pH 11 as described above under item C-2i and 750 mL/L water such that the compound of formula (Ib) was present in an total amount of approximately 1 wt.-%, based on the total weight of the respective working solution. The various pH values were obtained by adding sulfuric acid. The stability was evaluated after 14 days by carefully determining the presence of precipitates. During the stability tests, the temperature of each storage solution was kept constant at 50° C.

As for `CO[Si](CCCOCC(O)CSc1nnc(N)s1)(OC)OC` (stereo not shown) [formula (Ia)], in data set [1], the “t [min] DEGBE (time until fully dissolved)” value came out at 12 min and the “t [min] EGBE (time until fully dissolved)” value worked out at 10 min.
On to `CO[Si](CCCOCC(O)CSc1nnc(N)[nH]1)(OC)OC` (stereo not shown) [formula (Ib)], for which, in data set [2] (comparatively high pH, concentrations of approximately 4 wt.-%), the “stability in DEGBE storage solution (in words)” value is listed as “stable”. Besides, the “precipitation, storage solution” value is reported as “xx” in data set [2] (pH 4, 1 d); “xx” in data set [2] (pH 4, 7 d); “xx” in data set [2] (pH 4, 15 d); “xx” in data set [2] (pH 7, 1 d); “xx” in data set [2] (pH 7, 7 d); “xx” in data set [2] (pH 7, 15 d). The “precipitation, storage solution” value in data set [2] (pH 10, 1 d) was “x”; in data set [2] (pH 10, 7 d) it was “x”; in data set [2] (pH 10, 15 d) it was “x”; in data set [2] (pH 11, 1 d) it was 0; in data set [2] (pH 11, 7 d), 0; in data set [2] (pH 11, 15 d), 0. Besides, the “precipitation, storage solution” value in data set [2] (pH 12, 1 d) came out at 0; in data set [2] (pH 12, 7 d), 0; in data set [2] (pH 12, 15 d) it was 0. The “precipitation, working solution” value is recorded as “xx” in data set [3] (pH 4, after 14 days); 0 in data set [3] (pH 6, after 14 days); 0 in data set [3] (pH 7, after 14 days); “x” in data set [3] (pH 8, after 14 days); “xx” in data set [3] (pH 10, after 14 days).
Consider `CO[Si](CCCSc1nnc(N)[nH]1)(OC)OC` [formula (X), reference compound], for which, in data set [1], the “t [min] DEGBE (time until fully dissolved)” value is on record as 25 min and the “t [min] EGBE (time until fully dissolved)” value is over 30 min.
